{
  "source": "patent US20100280050A1",
  "about": "“Piperidinylamino-Thieno[2,3-D] Pyrimidine Compounds for Treating Fibrosis” (priority 2007, published 2010)",
  "key": {"[1]": {"tested_on": "liver fibrosis induced by monocrotaline (MCT)", "test": "monocrotaline (MCT) model, hepatic fibrosis analysis", "format": "in vivo", "procedure": "(§1) Compound A was assayed for effects on lung and liver lesions, as well as liver fibrosis in animals suffering from liver fibrosis induced by monocrotaline (MCT).\n(§2) General Procedure: In this assay, animals were treated with MCT/vehicle, MCT with phosphate-buffered saline (PBS), or MCT with compound A. Following treatment, animals were sacrificed, and lung tissue was perfused and fixed in 10% neutral buffered formalin via the trachea. Lung and liver tissue was removed, sectioned and stained with hematoxylin-eosin. 41 liver and 41 lung slides were obtained for histologic evaluation. All slides were scored blindly without knowledge of experimental conditions. Lung and liver slides were evaluated according to the criteria listed below. Each parameter was subjectively evaluated and scored from 0-5, with 0 being no discernable lesions and 5 indicating the most severe lesions. Final scores for both the liver and lung lesions were calculated by averaging all parameters for each individual tissue.\n(§3) • 1. Capsular fibrin • 2. Interlobular fibrosis • 3. Zone 1, 2, 3 necrosis • 4. Central vein, portal vein necrosis • 5. Sinusoidal spaces (hepatocytes dropout) • 6. Spaces of Disse • 7. Bile duct • 8. Bile caniliculi • 9. Kupffer cells • 10. Hepatocyte appositional surfaces • 11. Cell and nuclear size variation • 12. Cytoplasm variation\nThere were varying degrees of myofibroblast proliferation and collagen deposition surrounding portal tracts with occasional bridging into zones two and three. Bile duct proliferation was occasionally associated with areas of fibrosis."}, "[2]": {"target": "more than 51 receptors including GPCRs, ion channels and receptor tyrosine kinases", "test": "panel of more than 51 receptors", "format": "binding", "conditions": "almost no affinity, read-out: Ki, more than 51 receptors tested"}, "dopamine D5 receptor": {"target": "dopamine D5 receptor (Homo sapiens, UniProt P21918)", "sequence (P21918 whole entry)": "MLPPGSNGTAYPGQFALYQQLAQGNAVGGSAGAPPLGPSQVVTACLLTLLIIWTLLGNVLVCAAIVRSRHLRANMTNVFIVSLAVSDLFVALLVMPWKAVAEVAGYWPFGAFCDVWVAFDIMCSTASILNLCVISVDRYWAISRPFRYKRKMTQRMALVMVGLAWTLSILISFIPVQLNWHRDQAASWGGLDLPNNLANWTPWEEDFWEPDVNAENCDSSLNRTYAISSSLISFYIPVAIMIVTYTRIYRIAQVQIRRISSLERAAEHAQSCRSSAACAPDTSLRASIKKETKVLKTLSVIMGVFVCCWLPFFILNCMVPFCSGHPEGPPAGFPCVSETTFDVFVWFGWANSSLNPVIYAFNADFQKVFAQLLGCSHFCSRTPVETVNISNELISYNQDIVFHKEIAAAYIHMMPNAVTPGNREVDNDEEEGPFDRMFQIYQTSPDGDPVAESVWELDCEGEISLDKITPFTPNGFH", "test": "dopamine D5 receptor activity", "format": "binding", "conditions": "no activity"}, "σ2 receptor": {"target": "σ2 receptor (Homo sapiens, UniProt Q5BJF2)", "sequence (Q5BJF2 whole entry)": "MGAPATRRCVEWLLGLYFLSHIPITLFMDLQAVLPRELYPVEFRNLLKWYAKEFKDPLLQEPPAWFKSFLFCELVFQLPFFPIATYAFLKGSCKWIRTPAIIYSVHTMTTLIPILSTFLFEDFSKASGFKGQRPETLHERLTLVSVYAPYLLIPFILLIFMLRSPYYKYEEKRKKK", "test": "σ2 receptor binding", "conditions": "moderate binding"}, "σ receptors": {"target": "σ receptors", "test": "σ receptor functional assays (agonist activity)", "format": "biochemical", "conditions": "very weak agonist"}, "[3]": {"tested_on": "liver lesions induced by monocrotaline (MCT)", "test": "monocrotaline (MCT) model, liver lesion scoring", "format": "in vivo", "conditions": "for liver lesion severity score compared to Vehicle+PBS control: p<0.05", "procedure": "as §1, §2, §3"}, "[4]": {"tested_on": "all other 5-HT receptor subtypes", "test": "affinity for the other 5-HT receptor subtypes", "format": "binding", "conditions": "5-HT2B versus all other 5-HT subtypes, except 5-HT1A"}, "dopamine D3 receptor": {"target": "dopamine D3 receptor (Homo sapiens, UniProt P35462)", "sequence (P35462 whole entry, species assumed)": "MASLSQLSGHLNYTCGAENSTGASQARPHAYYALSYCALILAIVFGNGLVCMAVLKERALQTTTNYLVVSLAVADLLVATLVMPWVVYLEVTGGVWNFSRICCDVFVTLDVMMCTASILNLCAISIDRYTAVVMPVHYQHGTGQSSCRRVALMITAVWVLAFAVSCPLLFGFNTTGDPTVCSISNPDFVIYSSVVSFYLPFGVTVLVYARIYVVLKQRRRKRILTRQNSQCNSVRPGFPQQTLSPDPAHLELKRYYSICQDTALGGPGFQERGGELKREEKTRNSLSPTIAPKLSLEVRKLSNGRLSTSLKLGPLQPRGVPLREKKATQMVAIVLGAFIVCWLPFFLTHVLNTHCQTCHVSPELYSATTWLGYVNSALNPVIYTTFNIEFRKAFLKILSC", "test": "dopamine D3 receptor affinity", "format": "binding", "conditions": "moderate activity"}, "dopamine D1 receptor": {"target": "dopamine D1 receptor (Homo sapiens, UniProt P21728)", "sequence (P21728 whole entry)": "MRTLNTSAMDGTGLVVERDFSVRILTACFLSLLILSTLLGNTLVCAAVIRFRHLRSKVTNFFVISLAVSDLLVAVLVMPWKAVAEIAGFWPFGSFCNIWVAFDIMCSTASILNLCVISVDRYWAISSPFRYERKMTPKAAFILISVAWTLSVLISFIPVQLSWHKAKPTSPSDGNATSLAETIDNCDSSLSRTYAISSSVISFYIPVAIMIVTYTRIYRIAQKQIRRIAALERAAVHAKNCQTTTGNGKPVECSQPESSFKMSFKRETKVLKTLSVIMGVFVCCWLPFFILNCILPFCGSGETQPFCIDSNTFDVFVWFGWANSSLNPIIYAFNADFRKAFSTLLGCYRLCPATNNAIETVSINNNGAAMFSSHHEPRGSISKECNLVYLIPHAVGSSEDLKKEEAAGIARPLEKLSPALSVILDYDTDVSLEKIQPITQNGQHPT", "test": "dopamine D1 receptor activity", "format": "binding", "conditions": "no activity"}, "dopamine D2 receptor": {"target": "dopamine D2 receptor (Homo sapiens, UniProt P14416)", "sequence (P14416 whole entry, species assumed)": "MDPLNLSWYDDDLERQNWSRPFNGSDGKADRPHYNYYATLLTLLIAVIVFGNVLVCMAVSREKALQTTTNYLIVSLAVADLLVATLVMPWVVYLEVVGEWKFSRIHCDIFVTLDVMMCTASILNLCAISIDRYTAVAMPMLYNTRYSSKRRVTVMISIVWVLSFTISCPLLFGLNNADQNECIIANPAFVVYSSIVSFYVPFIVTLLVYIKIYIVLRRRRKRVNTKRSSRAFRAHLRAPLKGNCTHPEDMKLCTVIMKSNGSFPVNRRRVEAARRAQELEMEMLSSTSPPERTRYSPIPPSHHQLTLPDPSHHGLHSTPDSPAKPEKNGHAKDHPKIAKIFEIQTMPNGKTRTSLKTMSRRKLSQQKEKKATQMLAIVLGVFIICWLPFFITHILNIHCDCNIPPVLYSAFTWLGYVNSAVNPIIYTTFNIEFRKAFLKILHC", "test": "dopamine D2 receptor antagonism", "format": "biochemical", "conditions": "weak antagonist"}, "[5]": {"tested_on": "Caspase 3/7 activity in rat activated hepatic stellate cells", "test": "Caspase-Glo 3/7 assay in rHSC", "format": "cell-based", "conditions": "FIG. 7", "procedure": "Compound A was evaluated for activity in inducing Caspase 3/7 activity. Caspase 3 is involved in regulating apoptosis, and increases in Caspase 3 activity in this assay correlate to increased levels of apoptosis.\nGeneral Procedure: The assay was performed based on the following protocol: • 1. Passage rHSC at an appropriate density on a 96 well format and allow to adhere overnight. • 2. Treat cells with inhibitors for an appropriate length of time including the relevant controls. • 3. Allow both buffer and substrate to reach room temperature. • 4. Immediately prior to use, resuspend the substrate in 2.5 mL of buffer and mix thoroughly. • 5. Remove cells from incubator and allow the plates to cool to room temperature. • 6. Add Caspase-Glo® reagent at a 1:1 ratio (i.e. 100 μL to 100 μL media) and shake at 300 rpm for 30 sec. • 7. Incubate cells with Caspase-Glo® reagent for 2 h at room temperature protected from light. • 8. Transfer all media to white walled luciferase plates and determined luminescence using the MicroBeta luminometer. • 9. Caspase activity is expressed as fold-change relative to the untreated control.\nCaspase-Glo® 3/7 reagent is available from Promega (Calif., USA). The Caspase-Glo® reagent contains a DEVD-caspase substrate which is selectively cleaved by caspase enzymes 3 and 7. […]"}, "[6]": {"tested_on": "lung lesions induced by monocrotaline (MCT)", "test": "monocrotaline (MCT) model, lung lesion scoring", "format": "in vivo", "procedure": "as §1, §2\n• 1. Alveolar edema • 2. Congestion • 3. Intra-alveolar hemorrhage • 4. Alveolar macrophage infiltrate • 5. Degree of erythrophagocytosis • 6. Degree of hemosiderosis • 7. Thickening of alveolar septa • 8. Type II pneumocyte hyperplasia • 9. General arterial thickening • 10. Thickening of tunica intima • 11. Thickening of tunica media • 12. Thickening of tunica adventitia • 13. Degree of perivascular edema. • 14. Perivascular inflammatory cells (lymphs and plasma cells) • 15. Increased BALT • 16. Endothelial reactivity and prominence."}, "[7]": {"tested_on": "rat activated hepatic myofibroblasts", "test": "acridine orange assay for morphological assessment of apoptosis", "format": "cell-based", "conditions": "1 μM dose", "procedure": "The compound 5-((4-(6-chlorothieno[2,3-d]pyrimidin-4-ylamino)piperidin-1-yl)methyl)-2-fluorobenzonitrile (hereinafter “compound A”), was evaluated for activity in promoting apoptosis of rodent and human activated hepatic myofibroblasts. The activity of compound A was compared against untreated cells, cells treated with dimethylsulfoxide, and cells treated with spiperone. Spiperone is a nonselective 5-HT2B antagonist. In the acridine orange assay for morphological assessment of apoptosis, compound A dose-dependently promotes elevated rates of apoptosis of rat activated hepatic myofibroblasts (40% of cells apoptotic with 1 μM dose). The results of the acridine orange assay are depicted in FIGS. 1-4."}, "σ1 receptor": {"target": "σ1 receptor (Homo sapiens, UniProt Q99720)", "sequence (Q99720 whole entry)": "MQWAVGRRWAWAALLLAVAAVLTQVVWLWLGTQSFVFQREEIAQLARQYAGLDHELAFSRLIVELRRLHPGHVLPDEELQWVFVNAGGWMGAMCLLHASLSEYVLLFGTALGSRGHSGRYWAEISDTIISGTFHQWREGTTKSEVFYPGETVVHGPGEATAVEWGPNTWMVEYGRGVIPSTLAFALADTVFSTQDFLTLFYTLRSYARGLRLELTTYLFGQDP", "test": "σ1 receptor binding", "conditions": "moderate binding"}, "[8]": {"tested_on": "human activated hepatic myofibroblasts (primary activated hepatic stellate cells)", "test": "apoptosis of human activated hepatic myofibroblasts", "format": "cell-based", "conditions": "overnight incubation", "procedure": "Compound A was tested on human activated hepatic myofibroblasts. The tested human cells were primary activated hepatic stellate cells isolated from normal human liver resected during removal of adjacent tumour tissue in patients with primary liver cancer. The cells were then cultured on plastic in full media and passaged at least 4 times to generate pure activated activated hepatic stellate cells, representing the major fibrogenic cell of the liver."}},
  "note": "pEC50, pIC50, pKi: −log10 of the molar value.",
  "data": [
    {"smiles": "N#Cc1cc(CN2CCC(Nc3ncnc4sc(Cl)cc34)CC2)ccc1F", "note": "[compound A, 5-((4-(6-Chlorothieno[2,3-d]pyrimidin-4-ylamino)piperidin-1-yl)methyl)-2-fluorobenzonitrile]", "values": [
      {"measurement": "degree of periportal fibrosis", "setting": "[1]; monocrotaline + 50 mg/kg", "value": "minimal to mild fibrosis"},
      {"measurement": "livers with periportal fibrosis", "setting": "[1]; monocrotaline + 50 mg/kg, 4 out of 8 livers", "value": 50, "unit": "%"},
      {"measurement": "degree of periportal fibrosis", "setting": "[1]; monocrotaline + 100 mg/kg", "value": "negligible-very minimal (1 small triad) fibrosis"},
      {"measurement": "livers with periportal fibrosis", "setting": "[1]; monocrotaline + 100 mg/kg, 1 out of 13 livers", "value": 7, "unit": "%"},
      {"measurement": "pKi", "setting": "[2]", "value": "< 6.00"},
      {"measurement": "pKi", "setting": "dopamine D5 receptor", "value": "< 5.30"},
      {"measurement": "pKi", "setting": "σ2 receptor", "value": 6.96},
      {"measurement": "pEC50", "setting": "σ receptors", "value": "~5.00"},
      {"measurement": "liver lesion severity score compared to Vehicle+PBS control", "setting": "[3]; 50 mg/kg + MCT", "value": "significant increase"},
      {"measurement": "liver lesion severity score compared to Vehicle+PBS control", "setting": "[3]; 100 mg/kg + MCT", "value": "significant increase"},
      {"measurement": "periportal necrosis, histology (FIG. 11)", "setting": "[3]; MCT + 50 mg/kg, Part B compared to Part A (vehicle + MCT)", "value": "slightly reduced"},
      {"measurement": "periportal necrosis, histology (FIG. 11)", "setting": "[3]; MCT + 100 mg/kg, Part C", "value": "further reduction of periportal necrosis"},
      {"measurement": "sinusoidal cells with small, condensed nuclei (may represent apoptotic stellate cells)", "setting": "[3]; groups receiving 50 mg/kg and 100 mg/kg", "value": "Moderate numbers"},
      {"measurement": "differences in receptor affinities compared with all other 5-HT receptor subtypes", "setting": "[4]", "value": "more than 500 fold"},
      {"measurement": "pKi", "setting": "dopamine D3 receptor", "value": "~6.51"},
      {"measurement": "pKi", "setting": "dopamine D1 receptor", "value": "< 5.30"},
      {"measurement": "pIC50", "setting": "dopamine D2 receptor", "value": 6.17},
      {"measurement": "Caspase activity (fold-change relative to the untreated control)", "setting": "[5]", "value": "increased Caspase activity in a time-dependent fashion"},
      {"measurement": "lung lesion score versus Vehicle+MCT group", "setting": "[6]; 50 mg/kg + MCT, p=0.09", "value": "lower lesion score"},
      {"measurement": "lung lesion score versus Vehicle+MCT group", "setting": "[6]; 100 mg/kg + MCT, p<0.01, similar to Vehicle+PBS group", "value": "reduced in severity"},
      {"measurement": "MCT-induced pulmonary lesion, histology (FIG. 11)", "setting": "[6]; MCT + 50 mg/kg, Part B", "value": "improvement of MCT-induced pulmonary lesion"},
      {"measurement": "MCT-induced pulmonary lesions, histology (FIG. 11)", "setting": "[6]; MCT + 100 mg/kg, Part C, compared to Part B", "value": "further reduction of MCT-induced pulmonary lesions"},
      {"measurement": "cells apoptotic", "setting": "[7]", "value": 40, "unit": "%"},
      {"measurement": "pKi", "setting": "σ1 receptor", "value": 7.00},
      {"measurement": "apoptosis", "setting": "[8]; 1 μM", "value": 20, "unit": "%"},
      {"measurement": "apoptosis", "setting": "[8]; 100 μM", "value": 60, "unit": "%"}
    ]}
  ]
}
